The conditions of data set [1]: 101 kPa, Liquid.
The nature of data set [2]: refractive index (Na D-line) (dimensionless). Conditions: 101.33 kPa, Liquid.

As a reminder, the mass density is the mass of a sample divided by its volume. The term speed of sound denotes how fast a sound wave travels through the sample. What is called viscosity is the internal friction of a fluid under shear. The refractive index is a measure of how strongly the sample bends light.

Several values for one entry are separate records, joined by “and”; a condition that tells them apart may be missing. Equal values may be shown once. ± gives the expanded uncertainty stated by the source.

Take `ClC=C(Cl)Cl` [trichloroethene]: the mass density is 1455.4 ± 2.5 kg/m3 in data set [1] (298.15 K), 1447 ± 2.5 kg/m3 in data set [1] (303.15 K) and 1438.5 ± 2.5 kg/m3 in data set [1] (308.15 K). The speed of sound in data set [1] (298.15 K) is listed as 1027 ± 6 m/s. Further, the figures for the viscosity in data set [1] (298.15 K), in data set [1] (303.15 K) and in data set [1] (308.15 K) were 0.573 ± 0.021 mPa·s, 0.547 ± 0.02 mPa·s and 0.521 ± 0.019 mPa·s, respectively. Further, the refractive index in data set [2] (298.15 K) stood at 1.476 ± 0.0024; in data set [2] (303.15 K), 1.4729 ± 0.0024; in data set [2] (308.15 K), 1.4698 ± 0.0024.
Take `CC(=O)N(C)C` [N,N-dimethylethanamide]: the values for the mass density in data set [1] (298.15 K), in data set [1] (303.15 K) and in data set [1] (308.15 K) were 946.8 ± 1.2 kg/m3, 942.1 ± 1.2 kg/m3 and 937.5 ± 1.3 kg/m3, respectively. Further, in data set [1] (298.15 K), the speed of sound was 1458 ± 8 m/s. In addition, the viscosity is 1.261 ± 0.039 mPa·s in data set [1] (298.15 K), 1.154 ± 0.036 mPa·s in data set [1] (303.15 K) and 1.047 ± 0.033 mPa·s in data set [1] (308.15 K). Also, the values for the refractive index in data set [2] (298.15 K), in data set [2] (303.15 K) and in data set [2] (308.15 K) were 1.4363 ± 0.0024, 1.4342 ± 0.0024 and 1.432 ± 0.0024, respectively.
`C1COCCO1` [1,4-dioxane]: the values for the mass density in data set [1] (298.15 K), in data set [1] (303.15 K) and in data set [1] (308.15 K) were 1028.6 ± 1.4 kg/m3, 1022.9 ± 1.5 kg/m3 and 1017.2 ± 1.5 kg/m3, respectively. Also, the speed of sound in data set [1] (298.15 K) was determined as 1345 ± 7 m/s. Further, the viscosity in data set [1] (298.15 K) is 1.196 ± 0.038 mPa·s and 1.195 ± 0.038 mPa·s; in data set [1] (303.15 K), 1.102 ± 0.035 mPa·s and 1.095 ± 0.035 mPa·s; in data set [1] (308.15 K) it was 1.008 ± 0.032 mPa·s. In addition, the refractive index in data set [2] (298.15 K) is listed as 1.4203 ± 0.0024; in data set [2] (303.15 K), 1.4164 ± 0.0024; in data set [2] (308.15 K) it was 1.4145 ± 0.0024.
Take `OCCCl` [1-chloro-2-hydroxyethane]: the mass density stood at 1200.9 ± 1.7 kg/m3 in data set [1] (298.15 K), 1192.5 ± 1.7 kg/m3 in data set [1] (303.15 K) and 1187.1 ± 1.8 kg/m3 in data set [1] (308.15 K). Also, the speed of sound in data set [1] (298.15 K) came out at 1358 ± 8 m/s. Moreover, the values for the viscosity in data set [1] (298.15 K), in data set [1] (303.15 K) and in data set [1] (308.15 K) were 3.104 ± 0.091 mPa·s, 2.669 ± 0.079 mPa·s and 2.347 ± 0.07 mPa·s, respectively. Moreover, the refractive index in data set [2] (298.15 K) stood at 1.4411 ± 0.0024; in data set [2] (303.15 K) it was 1.438 ± 0.0024; in data set [2] (308.15 K), 1.4326 ± 0.0024.
As for `CCOC(=O)CC(=O)OCC` [diethyl 1,3-propanedioate], the mass density is on record as 1049.6 ± 1.4 kg/m3 in data set [1] (298.15 K), 1044.2 ± 1.5 kg/m3 in data set [1] (303.15 K) and 1038.8 ± 1.5 kg/m3 in data set [1] (308.15 K). Besides, the speed of sound in data set [1] (298.15 K) came out at 1304 ± 7 m/s. The results for the viscosity in data set [1] (298.15 K), in data set [1] (303.15 K) and in data set [1] (308.15 K) were 1.941 ± 0.059 mPa·s, 1.755 ± 0.053 mPa·s and 1.602 ± 0.049 mPa·s, respectively. Besides, the refractive index is recorded as 1.4132 ± 0.0024 in data set [2] (298.15 K), 1.4108 ± 0.0024 in data set [2] (303.15 K) and 1.4085 ± 0.0024 in data set [2] (308.15 K).
Take `Clc1ccccc1Cl` [1,2-dichlorobenzene]: the mass density in data set [1] (298.15 K) stood at 1300.9 ± 1.9 kg/m3; in data set [1] (303.15 K) it was 1295.4 ± 1.9 kg/m3; in data set [1] (308.15 K), 1289.7 ± 2 kg/m3. In data set [1] (298.15 K), the speed of sound is 1280 ± 7 m/s. The viscosity stood at 1.324 ± 0.041 mPa·s in data set [1] (298.15 K), 1.214 ± 0.038 mPa·s in data set [1] (303.15 K) and 1.105 ± 0.035 mPa·s in data set [1] (308.15 K). Further, the figures for the refractive index in data set [2] (298.15 K), in data set [2] (303.15 K) and in data set [2] (308.15 K) were 1.5499 ± 0.0024, 1.5476 ± 0.0024 and 1.545 ± 0.0024, respectively.
`CCCCO` [butan-1-ol]: the mass density in data set [1] (298.15 K) stood at 805.8 ± 1 kg/m3; in data set [1] (303.15 K) it was 802 ± 1.1 kg/m3; in data set [1] (308.15 K) it was 798 ± 1.1 kg/m3. Moreover, in data set [1] (298.15 K), the speed of sound turned out to be 1237 ± 7 m/s. The viscosity came out at 2.564 ± 0.076 mPa·s in data set [1] (298.15 K), 2.245 ± 0.067 mPa·s in data set [1] (303.15 K) and 1.981 ± 0.06 mPa·s in data set [1] (308.15 K). Besides, the refractive index in data set [2] (298.15 K) turned out to be 1.3983 ± 0.0024; in data set [2] (303.15 K) it was 1.3955 ± 0.0024; in data set [2] (308.15 K), 1.3937 ± 0.0024.

For the origin of these results see the NIST ThermoML archive (doi:10.1021/je049609w).
